Measurements: patent publication US20250345391A1, “COMPOSITIONS AND METHODS FOR THE TREATMENT OF SEPSIS” (Children's Hospital Medical Center, priority 2022, published 2025)

What was measured:
Type in all cases: in vivo, Male C57BL/6 mice
lung sections = experiment: Lung histopathology after CLP sepsis; details: 6 h after CLP; colivelin 100 or 200 μg/kg i.p. at 1 h after CLP; vs vehicle
From the text: (§1) The investigation conformed to the National Institutes of Health Guide for the Care and Use of Laboratory Animals (Eighth Edition, 2011) and was approved by the Institutional Animal Care and Use Committee of the Cincinnati Children's Hospital Medical Center. Male C57BL/6 mice were obtained from Charles River Laboratories International, Inc. (Wilmington, MA). Mice were used at 3-5 months of age to mimic the equivalent for human ranges from 20-25 years (29). Male mice only were chosen for the experimentation to avoid interference from female hormonal fluctuations in sepsis responses during the estrous cycle. Mice were housed in pathogen-free conditions under a 10-h light/14-h dark cycle with free access to food and water. Mice were anesthetized with 2.0% isoflurane in 50% oxygen and polymicrobial sepsis was induced by cecal ligation and puncture (CLP) (30). […]
Paraffin-embedded sections of thoracic aortas and lungs were stained with hematoxylin and eosin for morphological evaluation by three independent observers blinded to the treatment groups. Lung injury was also analyzed by a semiquantitative score based on the following histologic features: alveolar capillary congestion, infiltration of red blood cells and inflammatory cells into the airspace, alveolar wall thickness, and hyaline membrane formation (34). […]

STAT3 = experiment: Western blot of STAT3 and phosphorylated forms in lung after CLP; details: 6 h after CLP; colivelin 100 μg/kg i.p. at 1 h after CLP; vs vehicle
From the text: (§2) The investigation conformed to the National Institutes of Health Guide for the Care and Use of Laboratory Animals (Eighth Edition, 2011) and was approved by the Institutional Animal Care and Use Committee of the Cincinnati Children's Hospital Medical Center. Male C57BL/6 mice were obtained from Charles River Laboratories International, Inc. (Wilmington, MA). Mice were used at 3-5 months of age to mimic the equivalent for human ranges from 20-25 years (29). Male mice only were chosen for the experimentation to avoid interference from female hormonal fluctuations in sepsis responses during the estrous cycle. Mice were housed in pathogen-free conditions under a 10-h light/14-h dark cycle with free access to food and water. Mice were anesthetized with 2.0% isoflurane in 50% oxygen and polymicrobial sepsis was induced by cecal ligation and puncture (CLP) (30). After a midline laparotomy, the cecum was exteriorized, ligated and punctured twice with a 23-G needle. The cecum was then returned into the peritoneal cavity and the abdominal incision was closed. After the procedure, mice were randomly assigned to three treatment groups: a vehicle-treated group received distilled water (200 μl/mouse) intraperitoneally (i.p.); a 100 μg colivelin-treated group received the colivelin at 100 μg/kg i.p., and a 200 μg colivelin-treated group received the colivelin at 200 μg/kg i.p. at 1 h after CLP. The intraperitoneal injection was chosen to allow for a rapid uptake and bioavailability of the peptide. All groups of mice also received fluid resuscitation (35 ml/kg normal saline solution subcutaneously) immediately after, at 3 h and 12 h after the CLP procedure. To minimize pain at the surgical incision site, lidocaine hydrochloride (1%, 4 mg/kg total dose) was applied locally immediately after the procedure. […] Mice were then sacrificed at 0, 6 and 18 h after CLP. Blood, lungs, kidneys, liver, and thoracic aortas were collected for biochemical assays.
(§3) Subcellular fractionation was performed using a centrifugation model. […] The Bradford protein assay was then used for quantitative determination of total proteins.
(§4) Cytosol content of total AMPKα1/α2 and its phosphorylated form pAMPKα1/α2 (Santa Cruz Biotechnology, Dallas, TX, USA), cytosol and nuclear content of STAT3 and its phosphorylated forms pSTAT3(Tyr705) and pSTAT3(Ser727) (Cell Signaling Technology, Danvers, MA, USA) were determined by immunoblot analyses; β-actin was concomitantly probed with mouse anti-β-actin (Santa Cruz Biotechnology) as a loading control for both cytosol and nuclear proteins. […] The immunoreaction was detected by near-infrared fluorescence. […]

AMPK = experiment: Western blot of AMPKα and pAMPKα in thoracic aorta cytosol after CLP; details: 6 h after CLP; colivelin i.p. at 1 h after CLP; vs vehicle; dose-independent
From the text: as §1, with “water.” for “water. Mice were anesthetized with 2.0% isoflurane in 50% oxygen and polymicrobial sepsis was induced by cecal ligation and puncture (CLP) (30).”
as §3, §4

[1] = tested on: polymicrobial sepsis by cecal ligation and puncture (CLP); experiment: Long-term studies of severity of sepsis (survival, severity score, body weight) up to 7 days after CLP
From the text: as §2
In a separate study, another cohort of mice was subjected to the CLP procedure and was used for assessing health and moribundity conditions, and survival rate up to 7 days. Mice were divided into two treatment groups in a blind and random fashion: a vehicle-treated group received distilled water (200 μl/mouse), and a colivelin-treated group received colivelin (100 μg/kg subcutaneously) at 1 h, 3 h and 24 h after the CLP procedure. Twelve animals were included for each group. One animal was sacrificed because of unintentional extensive damage in the small intestine during surgical procedure and was excluded from the study. The subcutaneous injection was chosen to avoid further stress in the peritoneum since the animals also received intraperitoneal treatment of antibiotics. To mimic the clinical management of antimicrobial coverage, all mice received ceftriaxone (25 mg/kg) and metronidazole (12.5 mg/kg) intraperitoneally every 12 h after CLP for three days. To minimize pain, buprenorphine (0.05 mg/kg) was administered subcutaneously at 1 h after surgery and every 12 h for three days after surgery. All groups of mice also received fluid resuscitation (35 ml/kg normal saline with 5% dextrose subcutaneously) every 24 h for all the duration of the experimental period. Although some spontaneous death occurred given the acute severity of the disease, spontaneous death was not considered as endpoint for this study for ethical reasons. […]

With Colivelin (SALLRSIPAPAGASRLLLLTGEIDLP) the “Microscopic examination of hematoxylin and eosin-stained lung sections” value (lung sections) was “reduced infiltration of inflammatory cells and ameliorated alveolar damage”, the “Cytosolic expression of pSTAT3(Ser727), lung” value (STAT3) was “significantly reduced” and the “Cytosolic expression of pSTAT3(Tyr705), lung” value (STAT3) was “significantly reduced”. For the same substance, the “Nuclear expression of pSTAT3(Ser727), lung” value (STAT3) was “lower than vehicle-treated mice, but not statistically significant”, the “Nuclear expression of pSTAT3(Tyr705), lung” value (STAT3) was “lower than vehicle-treated mice, but not statistically significant” and the “Ratio of the phosphorylated/total forms of AMPKα (p-AMPKα/AMPKα), cytosol of thoracic aortas” value (AMPK) was “significantly increased”. For the same substance, the “Health of survivor mice (severity score) at 6 and 7 days” value ([1]; 6 and 7 days after CLP, survivor mice, colivelin 100 μg/kg s.c., vs survivor vehicle-treated mice) was “significantly healthier”, the “Mice survived at 7 days” value ([1]; 7 days after CLP, colivelin 100 μg/kg s.c. at 1 h, 3 h and 24 h, with antibiotics and fluids, vehicle 6 out of 12) was 8 out of 11 and the Survival rate ([1]; 7 days after CLP, colivelin 100 μg/kg s.c. at 1 h, 3 h and 24 h, with antibiotics and fluids, vehicle 50%, not significant) was 72.6%. The “Body weight, later time points” value ([1]; later than two days, up to 7 days after CLP, colivelin 100 μg/kg s.c., vs vehicle) was “vehicle-treated mice maintained a significant lower weight than colivelin-treated mice” and the “Severity of signs of sepsis (severity score), all the observation period” value ([1]; up to 7 days after CLP, colivelin 100 μg/kg s.c. at 1 h, 3 h and 24 h, with antibiotics and fluids, vs vehicle) was “less severe signs of sepsis”.
